{"source": "the supplement of paper PMC10307832", "assay_in_all_cases": "relative viability (nuclei count vs DMSO), 5 days (fraction); higher = more cells survive", "key": {"[1]": {"compound": "N#CC[C@H](C1CCCC1)n1cc(-c2ncnc3[nH]ccc23)cn1 [Ruxolitinib] + CC(=O)Nc1cccc(-n2c(=O)n(C3CC3)c(=O)c3c(Nc4ccc(I)cc4F)n(C)c(=O)c(C)c32)c1 [Trametinib] (partner 0.02 µM)", "summary_of_the_method": "(§1)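 Cells from lung cancer lines were seeded into 1536-well plates and, one day later, dosed by pin tool. Treatments were either a single drug or a fixed dose of an anchor drug with five library-drug doses (not always all listed) in √10 steps. After 5 days, nuclei were stained in a one-step fixation (final 0.05% Triton X-100, 1% formaldehyde, 1 ug/ml Hoechst) and counted on 4× images, and relative viability is the treated-to-vehicle nuclei ratio, as the median of duplicate plates.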"}, "[2]": {"compound": "CS(=O)(=O)c1ccc(C(=O)Nc2ccc(Cl)c(-c3ccccn3)c2)c(Cl)c1 [Vismodegib] + N=C(N)NC(=N)NCCc1ccccc1 [Phenformin] (partner 250 µM)", "summary_of_the_method": "as §1"}, "[3]": {"compound": "CS(=O)(=O)c1ccc(C(=O)Nc2ccc(Cl)c(-c3ccccn3)c2)c(Cl)c1 [Vismodegib] + Nc1ncn([C@H]2C[C@H](O)[C@@H](CO)O2)c(=O)n1 [Decitabine] (partner 2 µM)", "summary_of_the_method": "as §1"}, "[4]": {"compound": "CS(=O)(=O)c1ccc(-c2cnc(N)c(C(=O)Nc3ccccc3)n2)cc1 [VE-821] + CCNC(=O)c1noc(-c2cc(C(C)C)c(O)cc2O)c1-c1ccc(CN2CCOCC2)cc1 [Luminespib] (partner 0.01 µM)", "summary_of_the_method": "as §1"}}, "data": [{"cell line": "UMC-11", "values": [{"measurement": "relative viability", "setting": "[1]; first compound 0.08 µM", "result": 0.823}, {"measurement": "relative viability", "setting": "[1]; first compound 0.253 µM", "result": 0.703}, {"measurement": "relative viability", "setting": "[1]; first compound 0.8 µM", "result": 0.872}, {"measurement": "relative viability", "setting": "[1]; first compound 2.53 µM", "result": 1.03}, {"measurement": "relative viability", "setting": "[1]; first compound 8 µM", "result": 0.653}, {"measurement": "relative viability", "setting": "[2]; first compound 0.08 µM", "result": 0.286}, {"measurement": "relative viability", "setting": "[2]; first compound 0.253 µM", "result": 0.311}, {"measurement": "relative viability", "setting": "[2]; first compound 0.8 µM", "result": 0.301}, {"measurement": "relative viability", "setting": "[2]; first compound 2.53 µM", "result": 0.283}, {"measurement": "relative viability", "setting": "[2]; first compound 8 µM", "result": 0.284}, {"measurement": "relative viability", "setting": "[3]; first compound 0.08 µM", "result": 0.623}, {"measurement": "relative viability", "setting": "[3]; first compound 0.253 µM", "result": 0.579}, {"measurement": "relative viability", "setting": "[3]; first compound 0.8 µM", "result": 0.489}, {"measurement": "relative viability", "setting": "[3]; first compound 2.53 µM", "result": 0.457}, {"measurement": "relative viability", "setting": "[3]; first compound 8 µM", "result": 0.53}, {"measurement": "relative viability", "setting": "[4]; first compound 0.08 µM", "result": 1.18}, {"measurement": "relative viability", "setting": "[4]; first compound 0.253 µM", "result": 0.966}, {"measurement": "relative viability", "setting": "[4]; first compound 0.8 µM", "result": 0.966}, {"measurement": "relative viability", "setting": "[4]; first compound 2.53 µM", "result": 1.03}, {"measurement": "relative viability", "setting": "[4]; first compound 8 µM", "result": 0.493}]}]}
